Tested on: Raji tumor-bearing nude mice
Assay: In vivo vasopermeability / biodistribution study, Raji lymphoma model (tumor uptake of 125I-Lym-1 F(ab')2 after pre-treatment)
Description: The Raji lymphoma cell line was used to produce heterotransplants in 6-week-old female nude mice by the subcutaneous injection of a 0.2 ml inoculum consisting of 4×10^7 Raji cells and 4×10^6 human fetal fibroblast feeder cells in the left thigh. Three days prior to injection, the mice were irradiated with 400 rads using a cesium irradiator to ensure a high take rate of the implanted cells. The tumors were grown for 14-18 days until they grew to approximately 1 cm in diameter.
To test the relative effects of the immunoconjugates on the biodistribution and tumor uptake of Lym-1 or TNT-1 in tumor-bearing mice, separate groups of 4-5 mice were given intravenous injections of 30 μg of antibody alone or antibody conjugate. At 2.5 hr after injection, each group received 50 μCi of ^125I-labeled Lym-1 or TNT-1 F(ab′)2 fragment as tracer.
All animals were sacrificed 72 hr later, by sodium pentobarbital overdose, for biodistribution analysis. Various organs, blood, and tumor were removed, weighed, and samples were counted in a gamma counter. For each mouse, data were expressed as tumor:organ ratio (cpm per gram tumor/cpm per gram organ) and percent injected dose/gram (% ID/g).

Substance	Vasopermeability (% Lym-1/IL-2) (i.v., enhanced Lym-1 uptake relative to Lym-1/IL-2 conjugate, 30-40 pM of peptide per assay)	Vasopermeability activity (in words) (intravenous administration)
3C: synthetic IL-2 peptide, amino acids 22-58 (SEQ ID NO:1), permeability enhancing peptide (EMILNGINNYKNPKLTRMLTFKFYMPKKATELKHLQC; listed as Homo sapiens) [Fragment 3C]	0	
E6: synthetic peptide fragment of human IL-2, amino acids 22-38 (QMILNGINNYKNPKLTR; UniProt P60568 42-58, looked up, fragment) [Fragment E6]		no activity

— patent publication US6737064B2, “Method for the diagnosis of neoplastic tissue comprising administering a vasopermeability enhancing peptide of human interleukin-2” (The University of Southern California, priority 1996, dated 2004)
